Results as given in ChEMBL document CHEMBL1201862, “PubChem BioAssay data set” (2004).
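Assay format: 96-well plates, 48-hour exposure. GI50: concentration for 50% inhibition of growth.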 Calls of active or inactive are those of the source. Rule as the data show it: active = GI50 up to about 1.1 µM and inactive = higher. Where a SMILES comes first, the peptide text is derived from it. [ ]: non-standard residue; d: D form. The star is where a group is joined. ξ: configuration not given here. ξD = NC(CC(=O)O)C(=O)O; Boc = CC(C)(C)OC(=O)*; Aib = CC(C)(N)C(=O)O; OtBu = CC(C)(C)O*

Key:
Assay in all cases: inhibition of tumour cell growth, NCI panel, 48 h
NCI-H226 = system: NCI-H226
COLO 205 = system: COLO 205
BT-549 = system: BT-549
HOP-62 = system: HOP-62
ACHN = system: ACHN
SW-620 = system: SW-620
LOX IMVI = system: LOX IMVI
SK-MEL-2 = system: SK-MEL-2
HL-60 = system: HL-60
NCI/ADR-RES = system: NCI/ADR-RES
OVCAR-8 = system: OVCAR-8
SF-539 = system: SF-539
RPMI-8226 = system: RPMI-8226
NCI-H522 = system: NCI-H522
NCI-H23 = system: NCI-H23
T47D = system: T47D
UO-31 = system: UO-31
MDA-MB-435 = system: MDA-MB-435
HCC 2998 = system: HCC 2998
MCF7 = system: MCF7

Measured: GI50

c1nc(NCCc2c[nH]cn2)c2nc[nH]c2n1
inactive: NCI-H226 91.6 µM | COLO 205 > 100 µM | BT-549 > 100 µM | HOP-62 > 100 µM | ACHN > 100 µM | SW-620 > 100 µM | LOX IMVI > 100 µM | SK-MEL-2 > 100 µM | HL-60 26.7 µM | NCI/ADR-RES > 100 µM | OVCAR-8 > 100 µM | SF-539 > 100 µM | RPMI-8226 > 100 µM | NCI-H522 > 100 µM | NCI-H23 > 100 µM | T47D > 100 µM | UO-31 > 100 µM | MDA-MB-435 > 100 µM

CCCCNC(=S)Nc1nc(C(=O)NNC(=O)c2ccccc2)cs1
inactive: NCI-H226 21.3 µM | COLO 205 13.3 µM | BT-549 18.1 µM | HOP-62 18 µM | ACHN 15.9 µM | SW-620 14 µM | LOX IMVI 10.1 µM | SK-MEL-2 19.6 µM | HL-60 96.6 µM | NCI/ADR-RES 16.9 µM | OVCAR-8 17.4 µM | HCC 2998 13.7 µM | RPMI-8226 26.1 µM | NCI-H522 19.3 µM | NCI-H23 > 10 µM | T47D 11.5 µM | UO-31 14.1 µM | MDA-MB-435 19.7 µM

Cc1cn(C2CCC(/C=N\O)O2)c(=O)[nH]c1=O (stereo not given)
inactive: NCI-H226 > 100 µM | COLO 205 > 100 µM | BT-549 > 100 µM | HOP-62 > 100 µM | ACHN > 100 µM | SW-620 > 100 µM | LOX IMVI > 100 µM | SK-MEL-2 > 100 µM | NCI/ADR-RES > 100 µM | OVCAR-8 > 100 µM | SF-539 > 100 µM | HCC 2998 > 100 µM | RPMI-8226 > 100 µM | NCI-H23 > 100 µM | MCF7 > 100 µM | T47D > 100 µM | UO-31 > 100 µM | MDA-MB-435 > 100 µM

CCn1c(-c2ccc(F)cc2)nc2c1C(=O)c1ccccc1C2=O
inactive: NCI-H226 91 µM | COLO 205 > 100 µM | BT-549 > 100 µM | HOP-62 > 100 µM | ACHN > 100 µM | SW-620 > 100 µM | HL-60 > 100 µM | NCI/ADR-RES > 100 µM | OVCAR-8 > 100 µM | SF-539 > 100 µM | HCC 2998 > 100 µM | RPMI-8226 > 100 µM | NCI-H522 > 100 µM | NCI-H23 > 100 µM | MCF7 > 100 µM | T47D > 100 µM | MDA-MB-435 > 100 µM

CCOC(=O)c1cc(C2(OC)CCN(Cc3ccccc3)C2=O)c(-c2cc(C)no2)[nH]1 (stereo not given)
inactive: COLO 205 > 100 µM | BT-549 > 100 µM | HOP-62 > 100 µM | ACHN > 100 µM | SW-620 > 100 µM | SK-MEL-2 > 100 µM | NCI/ADR-RES > 100 µM | OVCAR-8 > 100 µM | HCC 2998 > 100 µM | RPMI-8226 > 100 µM | NCI-H522 > 100 µM | NCI-H23 > 100 µM | MCF7 94.6 µM | T47D > 100 µM | UO-31 > 100 µM | MDA-MB-435 > 100 µM

COC(=O)CCC1=C(CC(=O)OC)C(C)(OC)N/C1=N/C(=O)OCc1ccccc1 (stereo not given)
inactive: NCI-H226 > 100 µM | COLO 205 > 100 µM | BT-549 > 100 µM | HOP-62 > 100 µM | ACHN > 100 µM | SW-620 > 100 µM | LOX IMVI > 100 µM | SK-MEL-2 > 100 µM | NCI/ADR-RES > 100 µM | OVCAR-8 > 100 µM | SF-539 > 100 µM | HCC 2998 > 100 µM | RPMI-8226 > 100 µM | NCI-H522 > 100 µM | NCI-H23 > 100 µM | MCF7 > 100 µM | T47D > 100 µM | UO-31 > 100 µM | MDA-MB-435 > 100 µM

O=C(CSc1nnc(-c2ccccn2)s1)N/N=C/c1ccccc1
inactive: NCI-H226 > 100 µM | COLO 205 > 100 µM | BT-549 > 100 µM | HOP-62 51.5 µM | ACHN 89.3 µM | SW-620 > 100 µM | LOX IMVI > 100 µM | SK-MEL-2 > 100 µM | NCI/ADR-RES > 100 µM | OVCAR-8 > 100 µM | SF-539 > 100 µM | NCI-H522 > 100 µM | NCI-H23 > 100 µM | MCF7 > 100 µM | T47D 46.8 µM | UO-31 39.4 µM | MDA-MB-435 > 100 µM

Cc1ccc(C(=O)Nc2ccc(S(=O)(=O)O)c3cc(S(=O)(=O)O)cc(S(=O)(=O)O)c23)cc1NC(=O)c1cccc(N)c1
inactive: NCI-H226 > 100 µM | COLO 205 > 100 µM | BT-549 > 100 µM | HOP-62 > 100 µM | ACHN > 100 µM | SW-620 > 100 µM | SK-MEL-2 73.8 µM | HL-60 > 100 µM | NCI/ADR-RES > 100 µM | OVCAR-8 > 100 µM | SF-539 > 100 µM | HCC 2998 > 100 µM | NCI-H522 > 100 µM | NCI-H23 > 100 µM | MCF7 > 100 µM | T47D > 100 µM | UO-31 > 100 µM

CC(=O)OC(C)(C)CCC(=O)[C@](C)(O)[C@H]1[C@H](O)C[C@@]2(C)[C@@H]3CCc4c(cc(OC5OC(CO)C(O)C(O)C5O)c(O)c4C)C3(C)C(=O)C[C@]12C (stereo not given in full)
inactive: NCI-H226 > 100 µM | COLO 205 > 100 µM | BT-549 > 100 µM | HOP-62 > 100 µM | ACHN > 100 µM | SW-620 > 100 µM | LOX IMVI > 100 µM | SK-MEL-2 > 100 µM | NCI/ADR-RES > 100 µM | OVCAR-8 > 100 µM | SF-539 > 100 µM | HCC 2998 > 100 µM | NCI-H522 > 100 µM | NCI-H23 > 100 µM | MCF7 > 100 µM | T47D > 100 µM | UO-31 > 100 µM | MDA-MB-435 > 100 µM

C=CC[C@]12C=C(OC)[C@@H](O)[C@](OC)(C(c3cc(OC)c4c(c3)OCO4)[C@H]1C)[C@H]2OC(C)=O (stereo not given in full)
inactive: NCI-H226 > 100 µM | COLO 205 > 100 µM | BT-549 > 100 µM | HOP-62 > 100 µM | ACHN > 100 µM | SW-620 > 100 µM | SK-MEL-2 > 100 µM | HL-60 91 µM | NCI/ADR-RES > 100 µM | OVCAR-8 > 100 µM | SF-539 > 100 µM | HCC 2998 > 100 µM | RPMI-8226 > 100 µM | NCI-H522 > 100 µM | NCI-H23 > 100 µM | MCF7 > 100 µM | T47D > 100 µM | UO-31 89.3 µM | MDA-MB-435 94.6 µM

COC(=O)C(C)(C)NC(=O)C(C)(C)NC(=O)C(CC(=O)OC(C)(C)C)NC(=O)OC(C)(C)C (stereo not given) (Boc-[ξD](OtBu)-[Aib]-[Aib]-OMe)
inactive: NCI-H226 > 100 µM | COLO 205 > 100 µM | BT-549 > 100 µM | HOP-62 > 100 µM | ACHN > 100 µM | SW-620 > 100 µM | LOX IMVI > 100 µM | SK-MEL-2 > 100 µM | NCI/ADR-RES > 100 µM | OVCAR-8 > 100 µM | SF-539 > 100 µM | RPMI-8226 > 100 µM | NCI-H522 > 100 µM | NCI-H23 > 100 µM | MCF7 > 100 µM | T47D > 100 µM | UO-31 > 100 µM | MDA-MB-435 > 100 µM
